By IC50 is commonly meant the concentration at which inhibition is half-maximal.

These results are taken from patent US20130345215A1, “PYRAZOLOPYRIMIDONE AND PYRAZOLOPYRIDONE INHIBITORS OF TANKYRASE” (Genentech, Inc., priority 2012, published 2013).

One test deals with T1, tankyrase 2 (TNKS2) (Homo sapiens, UniProt Q9H2K2).
T1 construct: His6-tankyrase 2 (construct: 934-1166) (His6-TNKS2)
In words: μHTS-TNKS-IWR2 TR-FRET Binding Assay (Example 118), His6-TNKS2 substituted. Particulars: procedure in Example 118 with His6-TNKS2. The protocol: (§1) μHTS-TNKS-IWR2 TR-FRET Binding Assay (10 μL/well in BD1536-well plate, a single point)
(§2) Reagents and Stock Solutions
Tankyrase 1 (TNKS1): 184.3 μM=5.2 mg/mL His6-TNKS1, MW=28.2 KDa (construct: 1088-1327, 1266M) in 20 mM Tris pH 8, 150 mM NaCl, 10% glycerol, and 0.5 mM TCEP. Alternatively, His6-tankyrase 2 (construct: 934-1166) (His6-TNKS2) or His6-PARP1 (full length) can be substituted for His6-TNKS 1.
(§3) Biotin-4-((1S,2R,6S,7R)-3,5-Dioxo-4-aza-tricyclo[5.2.1.0*2,6]dec-8-en-4-yl)-N-(4-methyl-quinolin-8-yl)-benzamide (Biotin-IWR2): 10 mM Biotin-IWR2 stock in DMSO, stored at −20° C.
Positive control: 10 mM 2-(4-Trifluoromethyl-phenyl)-3,5,7,8-tetrahydro-thiopyrano[4,3-d]pyrimidin-4-one (XAV939) in DMSO, stored at −20° C.
APC-anti-His Ab: 8.50 μM SL-APC, 8.26 μM anti-6His antibody-SureLight APC (Columia Bioscience, Catalog Number D3-1711, Lot Number N01010-AAH04)
Assay plate: BD 1536-well, clear/black plate (Catalog Number 353255)
(§4) Assay buffer 1a (AB1a) for TNKS dilution: 50 mM Tris, pH 7.4, 100 mM sodium chloride solution, 1 mM magnesium chloride solution, 1 mM DL-dithiothreitol solution, 0.2 mg/mL bovine serum albumin solution, 0.025% NP-40.
(§5) Assay buffer 1b (AB1b) for Biotin-IWR2 dilution: 50 mM Tris, pH 7.4, 100 mM sodium chloride solution, 1 mM magnesium chloride solution, 1 mM DL-dithiothreitol solution, 0.2 mg/mL bovine serum albumin solution, 0.05% NP-40
(§6) Assay buffer 1c (AB1c) for compound dilution: 50 mM Tris, pH 7.4, 100 mM sodium chloride solution, 1 mM magnesium chloride solution, 1 mM DL-dithiothreitol solution, 0.2 mg/mL bovine serum albumin solution
(§7) Assay buffer 2 (AB2) for Eu/APC: 50 mM Tris, pH 7.4, 100 mM sodium chloride solution, 1 mM magnesium chloride solution, 0.2 mg/mL bovine serum albumin solution
(§8) Reagent Stock Solution Preparation
Prepare Biotinylated IWR2 stock solution (3.33× stock) for TOTL and compound wells: 200 nM Biotin-IWR2 in 5% DMSO/AB1b buffer
(§9) Prepare BLANK well stock solution: 5% DMSO/AB1b buffer
Prepare POSITIVE CONTROL well stock solution (3.33× stock): 200 nM XAV939 in 200 nM Biotin-IWR2/5% DMSO/AB1b buffer
(§10) Prepare TNKS 1 stock solution (5× stock): 300 nM TNKS in AB1a buffer. (Alternatively, use TNKS2 or PARP1 stock solutions.)
Prepare Eu/APC stock solution (5× stock): 3.5 nM Eu-SA/50 nM APC-His6Ab in AB2 buffer.
Add 25 μL/well 1.5% DMSO/AB1c buffer in each compound well to the compound concentration at 74 μM in 8.8% DMSO/AB1c buffer or in the 2 μL DMSO CONTROL wells (BLANK, TOTAL and POSITIVE wells) in the compound plate. Transfer 3 μL/well of above solution (solution 1,2,3) to an empty assay plate (BD1536-well plate) as follows: • TOTAL and cpd wells: Solution 1 (Biotin-IWR2): • BLANK wells: Solution 2 (No Biotin-IWR2): • POSITIVE CONTROL wells: Solution 3 (Biotin-IWR2+XAV939)
Transfer 3 μL/well of the above diluted compound solutions or compound dilution buffer to the above assay plate. Add 2 μL/well of 300 nM TNKS stock solution (4) to every well in the above assay plate. Centrifuge the assay plate at 2100 rpm for 2 min. Incubate the assay plate at 26° C. for 30 minutes. Add 2 μL/well 3.5 nMEu/50 nM APC solution (5) to every well in the above assay plate. Centrifuge the assay plate at 2100 rpm for 2 min. Incubate the assay plate at 26° C. for 60 min. Read the assay plate immediately at excitation wavelength of 330 nm and emission wavelength of […] in time resolved fluorescence mode.
XAV939 (+ve control): 60 nM at ˜70% Inhibition
General Library compounds: 22.23 μM in 4% DMSO
For orientation: In TR-FRET formats the signal depends on donor and acceptor labels being close together.

In the next test the target is T2, Tankyrase 1 (TNKS1) (Homo sapiens, UniProt O95271).
T2 construct: His6-TNKS1, MW=28.2 KDa (construct: 1088-1327, 1266M)
In words: μHTS-TNKS-IWR2 TR-FRET Binding Assay (Example 118), His6-TNKS1. The procedure: as §1, §2, §3
(XAV939) in DMSO, stored at −20° C.
as §4, §5, §6, §7, §8, §9, §10
Transfer 3 μL/well of above solution (solution 1,2,3) to an empty assay plate (BD1536-well plate) as follows: • TOTAL and cpd wells: Solution 1 (Biotin-IWR2): • BLANK wells: Solution 2 (No Biotin-IWR2): • POSITIVE CONTROL wells: Solution 3 (Biotin-IWR2+XAV939)
Transfer 3 μL/well of the above diluted compound solutions or compound dilution buffer to the above assay plate. Add 2 μL/well of 300 nM TNKS stock solution (4) to every well in the above assay plate. Centrifuge the assay plate at 2100 rpm for 2 min. Incubate the assay plate at 26° C. for 30 minutes. Add 2 μL/well 3.5 nMEu/50 nM APC solution (5) to every well in the above assay plate. Centrifuge the assay plate at 2100 rpm for 2 min. Incubate the assay plate at 26° C. for 60 min.

Setting [1] is: Compounds I-1 to I-58, procedure in Example 118 (TR-FRET, Biotin-IWR2 60 nM, TNKS 60 nM), read-out: TNKS1 (IC50).

Where two headings read alike, the source gives them in different places.

T1 sequence (Q9H2K2 934-1166): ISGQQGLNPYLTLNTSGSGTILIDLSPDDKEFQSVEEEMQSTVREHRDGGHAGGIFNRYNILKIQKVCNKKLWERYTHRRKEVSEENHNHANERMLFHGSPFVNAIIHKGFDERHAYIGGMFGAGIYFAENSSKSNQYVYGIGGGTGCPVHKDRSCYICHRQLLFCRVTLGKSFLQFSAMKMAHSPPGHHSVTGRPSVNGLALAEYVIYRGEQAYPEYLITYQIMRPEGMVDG
T2 sequence (O95271 1088-1327): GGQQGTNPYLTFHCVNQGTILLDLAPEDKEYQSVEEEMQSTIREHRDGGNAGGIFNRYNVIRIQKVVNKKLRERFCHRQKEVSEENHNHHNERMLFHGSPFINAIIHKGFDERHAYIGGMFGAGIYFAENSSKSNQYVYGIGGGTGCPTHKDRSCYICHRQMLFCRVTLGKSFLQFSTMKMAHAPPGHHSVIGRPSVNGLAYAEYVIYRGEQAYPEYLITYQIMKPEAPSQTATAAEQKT

Regarding `Cn1ncc2c(=O)[nH]c(N3CCN(c4c(F)cccc4F)CC3)nc21` [Compound I-2, 6-[4-(2 6-difluorophenyl)piperazin-1-yl]-1-methyl-5H-pyrazolo[3 4-d]pyrimidin-4-one], the IC50 at tankyrase 2 (TNKS2) is 0.0187 µM; at Tankyrase 1 (TNKS1), 0.0109 µM.

As for `Cn1ncc2c(=O)[nH]c(N3CCN(c4ccc(S(C)(=O)=O)cc4F)CC3)nc21` [Compound I-21, 6-[4-(2-fluoro-4-methylsulfonyl-phenyl)piperazin-1-yl]-1-methyl-5H-pyrazolo[3 4-d]pyrimidin-4-one], the IC50 at tankyrase 2 (TNKS2) was 0.0815 µM; on Tankyrase 1 (TNKS1), 0.055 µM.

In the case of `Cn1ncc2c(=O)[nH]c(N3CCN(c4ncccc4C(F)(F)F)CC3)nc21` [Compound I-20, 1-methyl-6-[4-[3-(trifluoromethyl)-2-pyridyl]piperazin-1-yl]-5H-pyrazolo[3 4-d]pyrimidin-4-one], the 50% inhibitory concentration (IC50) at tankyrase 2 (TNKS2) turned out to be 0.0432 µM; at Tankyrase 1 (TNKS1) it was 0.031 µM.

`COCCOc1cc(F)c(F)c(N2CCN(c3nc4c(cnn4C)c(=O)[nH]3)CC2)c1` [Compound I-58] had an IC50 on tankyrase 2 (TNKS2) of 0.0471 µM.

For `COCCOc1cc(F)c(N2CCN(c3nc4c(cnn4C)c(=O)[nH]3)CC2)c(F)c1` [Compound I-1, 6-[4-[2 6-difluoro-4-(2-methoxyethoxy)phenyl]piperazin-1-yl]-1-methyl-5H-pyrazolo[3 4-d]pyrimidin-4-one], the IC50 on tankyrase 2 (TNKS2) stood at 0.0244 µM; at Tankyrase 1 (TNKS1), 0.0076 µM.

As for `Cn1ncc2c(=O)[nH]c(N3CCN(c4c(F)cc(N)cc4F)CC3)nc21` [Compound I-54, 6-[4-(4-amino-2 6-difluoro-phenyl)piperazin-1-yl]-1-methyl-5H-pyrazolo[3 4-d]pyrimidin-4-one], the IC50 on tankyrase 2 (TNKS2) was determined as 0.025 µM; on Tankyrase 1 (TNKS1), 0.021 µM.

As for `Cn1ncc2c(=O)[nH]c(N3CCN(C4CCCC4)CC3)nc21` [Compound I-37, 6-(4-cyclopentylpiperazin-1-yl)-1-methyl-5H-pyrazolo[3 4-d]pyrimidin-4-one], the IC50 at tankyrase 2 (TNKS2) was determined as 0.178 µM; on Tankyrase 1 (TNKS1), 0.165 µM.

Regarding `COc1cccnc1N1CCN(c2nc3c(cnn3C)c(=O)[nH]2)CC1` [Compound I-43, 6-[4-(3-methoxy-2-pyridyl)piperazin-1-yl]-1-methyl-5H-pyrazolo[3 4-d]pyrimidin-4-one], the figures for the half-inhibitory concentration (IC50) at tankyrase 2 (TNKS2) and at Tankyrase 1 (TNKS1) were 0.0553 µM and 0.047 µM, respectively.

Take `Cn1ncc2c(=O)[nH]c(N3CCN(c4ccnc(Cl)c4Cl)CC3)nc21` [Compound I-46, 6-[4-(2 3-dichloro-4-pyridyl)piperazin-1-yl]-1-methyl-5H-pyrazolo[3 4-d]pyrimidin-4-one]: the values for the IC50 on tankyrase 2 (TNKS2) and at Tankyrase 1 (TNKS1) were 0.0939 µM and 0.061 µM, respectively.

Regarding `Cn1ncc2c(=O)[nH]c(N3CCC(O)(c4ccccc4)CC3)nc21` [Compound I-23, 6-(4-hydroxy-4-phenyl-1-piperidyl)-1-methyl-5H-pyrazolo[3 4-d]pyrimidin-4-one], the IC50 on tankyrase 2 (TNKS2) is 0.0668 µM; on Tankyrase 1 (TNKS1) it was 0.057 µM.

As for `CCC(=O)c1cc(F)c(N2CCN(c3nc4c(cnn4C)c(=O)[nH]3)CC2)c(F)c1` [Compound I-45, 6-[4-(2 6-difluoro-4-propanoyl-phenyl)piperazin-1-yl]-1-methyl-5H-pyrazolo[3 4-d]pyrimidin-4-one], the half-maximal inhibitory concentration (IC50) turned out to be 0.033 µM at tankyrase 2 (TNKS2) and 0.028 µM on Tankyrase 1 (TNKS1).

Regarding `Cn1ncc2c(=O)[nH]c(N3CCN(c4cc(O)cc(F)c4F)CC3)nc21` [Compound I-57, 6-[4-(2 3-difluoro-5-hydroxy-phenyl)piperazin-1-yl]-1-methyl-5H-pyrazolo[3 4-d]pyrimidin-4-one], the concentration for half-maximal inhibition (IC50) at tankyrase 2 (TNKS2) was determined as 0.0564 µM; on Tankyrase 1 (TNKS1) it was 0.066 µM.

As for “6-[4-(2- fluorophenyl)piperazin-1- yl]-1-methyl-5H- pyrazolo[4 3-c]pyridin-4- one [Compound I-7]”, the IC50 stood at 0.0412 µM at tankyrase 2 (TNKS2) and 0.046 µM at Tankyrase 1 (TNKS1) (setting [1]).

With `Cn1ncc2c(=O)[nH]c(N3CCN(c4ncccc4C#N)CC3)nc21` [Compound I-18, 2-[4-(1-methyl-4-oxo-5H-pyrazolo[3 4-d]pyrimidin-6-yl)piperazin-1-yl]pyridine-3-carbonitrile], the figures for the IC50 at tankyrase 2 (TNKS2) and on Tankyrase 1 (TNKS1) were 0.228 µM and 0.15 µM, respectively.

As to `COCCOc1cc(F)c(N2CCN(c3cc4c(cnn4C)c(=O)[nH]3)CC2)c(F)c1` [Compound I-53, 6-[4-[2 6-difluoro-4-(2-methoxyethoxy)phenyl]piperazin-1-yl]-1-methyl-5H-pyrazolo[4 3-c]pyridin-4-one], the IC50 on tankyrase 2 (TNKS2) turned out to be 0.0193 µM; at Tankyrase 1 (TNKS1), 0.026 µM.

For the compound `Cn1ncc2c(=O)[nH]c(N3CCN(c4ncccc4C(F)(F)F)CC3)cc21` [Compound I-26, 1-methyl-6-[4-[3-(trifluoromethyl)-2-pyridyl]piperazin-1-yl]-5H-pyrazolo[4 3-c]pyridin-4-one], the half-maximal inhibitory concentration (IC50) was 0.0304 µM at tankyrase 2 (TNKS2) and 0.029 µM on Tankyrase 1 (TNKS1).

As to `Cn1ncc2c(=O)[nH]c(-c3ccc(C(F)(F)F)nc3)nc21` [Compound I-27, 1-methyl-6-[6-(trifluoromethyl)-3-pyridyl)-5H-pyrazolo[3 4-d]pyrimidin-4-one], the results for the IC50 on tankyrase 2 (TNKS2) and on Tankyrase 1 (TNKS1) were 0.428 µM and 0.385 µM, respectively.

In the case of “6-[4-(4-fluorophenyl)-1- piperidyl]-1-methyl-5H- pyrazolo[4 3-c]pyridin-4- one [Compound I-8]”, the IC50 on tankyrase 2 (TNKS2) worked out at 0.0428 µM; on Tankyrase 1 (TNKS1) (setting [1]) it was 0.042 µM.

On to `Cn1ncc2c(=O)[nH]c(N3CCN(c4c(Cl)cncc4Cl)CC3)nc21` [Compound I-34, 6-[4-(3 5-dichloro-4-pyridyl)piperazin-1-yl]-1-methyl-5H-pyrazolo[3 4-d]pyrimidin-4-one], for which the IC50 at tankyrase 2 (TNKS2) stood at 0.0289 µM; at Tankyrase 1 (TNKS1), 0.029 µM.

`COCCOc1ccc(N2CCN(c3nc4c(cnn4C)c(=O)[nH]3)CC2)c(F)c1` [Compound I-30, 6-[4-[2-fluoro-4-(2-methoxyethoxy)phenyl]piperazin-1-yl]-1-methyl-5H-pyrazolo[3 4-d]pyrimidin-4-one]: the IC50 stood at 0.234 µM on tankyrase 2 (TNKS2) and 0.013 µM at Tankyrase 1 (TNKS1).

For `Cn1ncc2c(=O)[nH]c(N3CCN(c4ccccc4F)CC3)nc21` [Compound I-3, 6-[4-(2-fluorophenyl)piperazin-1-yl]-1-methyl-5H-pyrazolo[3 4-d]pyrimidin-4-one], the IC50 came to 0.0344 µM on tankyrase 2 (TNKS2) and 0.027 µM at Tankyrase 1 (TNKS1).
